This note sets out measurements from paper PMC8238520, “Co-ordinated control of the Aurora B abscission checkpoint by PKCε complex assembly, midbody recruitment and retention” (Biochemical Journal, 2021).

Type in all cases: cell-based
Test [1] concerns GFP-PKCε (WT) in HEK293T cells. Kind of test: Midbody recruitment of GFP-PKCε (WT), immunofluorescence. The note with it: cells undergoing cytokinesis, twenty cells with midbodies per condition across three experiments. As to the method: (§1) Cells were grown on 13 mm glass coverslips and simultaneously fixed and permeabilized with PHEM-TX buffer (60 mM PIPES (pH 6.8), 25 mM HEPES (pH7.4), 10 mM EGTA (pH 8), 4 mM MgSO4, 4% paraformaldehyde and 0.1% Triton X-100) for 20 min. Cells were then incubated in blocking buffer (3% BSA in PBS) and probed using the following primary antibodies: rabbit Aurora B pS227 (in house, 1 : 100), mouse α-tubulin (in house, 1 : 1000). Primary antibodies were detected using Alexa Fluor-conjugated secondary antibodies (Life Technologies) and were all used diluted in blocking buffer: donkey anti-rabbit Alexa Fluor 647 and goat anti-mouse Alexa Fluor 555. […]
(§2) Figure 2. […] (B) Quantitation of dividing cells with GFP-PKCε and GFP-PKCε-D532N accumulation at the midbody. […] (D) Quantitation of dividing cells with GFP-PKCε, GFP-PKCε-S346A-S368A, GFP-PKCε-D532N or GFP-PKCε-D532N-S346A-S368A accumulation at the midbody. […] (F) Quantitation of dividing cells with GFP-PKCε-D532N, GFP-PKCε-D532N-C183A, GFP-PKCε-D532N-C259A or GFP-PKCε-D532N-ΔC2 accumulation at the midbody. […] (G) Quantitation of multinucleate cells upon treatment with non-targeting siRNA (control) or PKCε siRNA, with expression of siRNA-resistant mouse GFP-PKCε, GFP-PKCε-D532N, GFP-PKCε-C183A, GFP-PKCε-C259A or GFP-PKCε-ΔC2. […] Two-hundred cells were counted per condition per experiment. […]

In test [2] the test system is GFP-PKCε-C183A in HEK293T cells. Description: Midbody recruitment of GFP-PKCε-C183A (C1A mutant), immunofluorescence. The note with it: twenty cells with midbodies per condition across three experiments. As to the method: as §1, §2
Test [3] deals with GFP-PKCε-C259A in HEK293T cells. Description: Midbody recruitment of GFP-PKCε-C259A (C1B mutant), immunofluorescence. The note with it: twenty cells with midbodies per condition across three experiments. As to the method: as §1, §2
Test [4] has as its system GFP-PKCε-ΔC2 in HEK293T cells. Kind of test: Midbody recruitment of GFP-PKCε-ΔC2, immunofluorescence. How it is done: as §1, with “555. All coverslips were mounted using ProLong Gold Diamond with DAPI (Invitrogen). All the static images were acquired using an inverted laser scanning confocal microscope (Carl Zeiss LSM 780) equipped with a 40× Plan-APOCHROMAT DIC oil-immersion objective. Image analysis was carried out using the ZEN analysis software. The variation in expression precluded midbody/cytoplasmic ratio determination as a valid approach to scoring localisation.” for “555.”
(§3) I = I0 –I 1e-t/T1 –I 2e-t/T2 (see Methods), for GFP-PKC e M486A expressing HEK293T cells pretreated with NaPP1. Cells were bleached atthe plasma membrane (PM) or midbody(MB)and fluorescence recovery was monitored. […]

The test system of test [5] is GFP-PKCε-L223A-K224A-E227A in HEK293T cells. Kind of test: Midbody recruitment of GFP-PKCε-L223A-K224A-E227A (LKE > 3A), immunofluorescence. The note with it: twenty cells with midbodies per condition across three experiments. As to the method:
as §1, with “555. All coverslips were mounted using ProLong Gold Diamond with DAPI (Invitrogen). All the static images were acquired using an inverted laser scanning confocal microscope (Carl Zeiss LSM 780) equipped with a 40× Plan-APOCHROMAT DIC oil-immersion objective. Image analysis was carried out using the ZEN analysis software. The variation in expression precluded midbody/cytoplasmic ratio determination as a valid approach to scoring localisation.” for “555.”
Figure 3. […] (C) Quantitation of dividing cells with GFP-PKCε, GFP-PKCε-D532N, GFP-PKCε-D532N-L223A-K224A-E227A, GFP-PKCε-D532N-T228A or GFP-PKCε-D532N-S234A accumulation at the midbody. […]

Test [6] relates to GFP-PKCε M486A in HEK293T cells. Kind of test: Fluorescence recovery after photobleaching (FRAP). The note with it: NaPP1 (4 μM) for 10 min; 37°C. How it is done: Live-cell fluorescence recovery after photobleaching (FRAP) experiments were performed using an inverted laser scanning confocal microscope (LSM 510, Carl Zeiss MicroImaging GmbH, Jena, Germany), with fully open pinhole, using a Plan-Apochromat oil-immersion objective (×63, NA 1.4). The microscope was encased inside an environmental polymethylmethacrylate case maintained at a constant temperature of 37°C, while the dishes containing the cells were maintained under a constant 5% CO2 flow. GFP-PKCε M486A cells were incubated with NaPP1 (4 μM) for 10 min. Each FRAP experiment comprised a sequence of 300 frames (128 × 128, pixel dwell time of 6.40 μs, pixel size 0.37 μm) including 10 pre-bleached frames. […] Recovery was monitored by capturing a further 290 scans after the photobleach event. Quantification was performed using the FRAP module included in the LSM software (Carl Zeiss) plotting the graphs to a best fit double exponential model I = I0 − I1e^−t/T^1 − I2e^−t/T^2 where I0 is the intensity before bleach, I1 and I2 are the mobile fractions and T1 and T2 the time constants. […]
as §3

Regarding `CCCCCCCCCC(=O)OC[C@H](CO)OC(=O)CCCCCCCCC` [DiC10, sn-1,2-didecanoylglycerol], the “midbody recruitment of WT PKCε on diC10” value in test [1] (10 µM diC10, 3 min) is listed as “recruited to the midbody region”. For the same compound, in test [2] (10 µM diC10, 3 min), the “cells displaying recruitment of C1A mutant to midbody on diC10” value came to 0%. For the same compound, the “cells displaying recruitment of C1B mutant to midbody on diC10” value in test [3] (10 µM diC10, 3 min) stood at 0%. Moreover, in test [4] (DiC10, data not shown), the “midbody recruitment of PKCεΔC2 on diC10” value is recorded as “recruited”. The “midbody recruitment of LKE > 3A mutant on diC10” value in test [5] (10 µM diC10, 3 min) is given as “recruited to the midbody”.

For `CC(C)(C)n1nc(-c2cccc3ccccc23)c2c(N)ncnc21` [NaPP1], in test [6], the “fast component of FRAP recovery at the midbody compared with the plasma membrane recruited protein” value was “considerably slower”.

With `CCCCCCCCCCCCCC(=O)O[C@@H]1[C@@H](C)[C@@]2(O)[C@@H](C=C(CO)C[C@]3(O)C(=O)C(C)=C[C@@H]23)[C@@H]2C(C)(C)[C@]12OC(C)=O` [PMA, phorbol myristate acetate], in test [1] (1 µM PMA, 20 min), the “midbody recruitment of WT PKCε on PMA” value was “recruited to the midbody region”. In test [2] (1 µM PMA, 20 min), the “midbody accumulation of C1A mutant (C183A) on PMA” value is “still promoted midbody accumulation”. For the same compound, in test [3] (1 µM PMA, 20 min), the “midbody recruitment of C1B mutant (C259A) on PMA” value is recorded as “not recruited”. For the same compound, in test [4] (PMA for 20 minutes, 20 cells per condition across 3 experiments), the “midbody recruitment of PKCεΔC2 on PMA” value is “recruited”. Besides, in test [5] (1 µM PMA, 20 min), the “midbody recruitment of LKE > 3A mutant on PMA” value is reported as “recruited to the midbody”.
